Reference: patent US7332279B2 (Glycozym APS, priority 1999, dated 2008)
Read-outs that look alike come from different tables or passages of the source.

Columns and labels:
Format in all cases: biochemical
β3Gal-T5 = biological target: T1, β3Gal-T5 (Homo sapiens, UniProt Q9Y2C3, M85T); assay: Galactosyltransferase assay, partially purified secreted recombinant β3Gal-T5, saccharide acceptors; settings: for β3Gal-T5 activity, substrate concentration 1 mM: acceptor 1 mM; for β3Gal-T5 activity, substrate concentration 5 mM: acceptor 5 mM
T1 construct: designed to exclude the hydrophobic transmembrane segment and to encode amino acid residues 25-310; secretion signal of vector pAcGP67B (gp67); made in house; host or cells: baculovirus; Sf9 cells (media) and High Five cells (serum-free medium, partially purified)
T1 sequence (Q9Y2C3 25-310 M85T): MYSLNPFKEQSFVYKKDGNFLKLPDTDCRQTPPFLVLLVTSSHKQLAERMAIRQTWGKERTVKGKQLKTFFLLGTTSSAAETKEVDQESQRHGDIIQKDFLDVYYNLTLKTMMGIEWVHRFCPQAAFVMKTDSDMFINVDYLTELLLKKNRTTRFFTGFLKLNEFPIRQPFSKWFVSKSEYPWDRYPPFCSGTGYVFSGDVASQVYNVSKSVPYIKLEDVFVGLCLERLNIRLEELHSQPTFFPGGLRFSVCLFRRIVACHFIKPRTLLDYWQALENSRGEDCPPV
Source text: PCR product was cloned into the BamHI site of pAcGP67B (Pharmingen). […] This PCR product was cloned into the BamHI site of pVL1193 (Pharmingen). Both soluble and full length constructs were fully sequenced to confirm fidelity. Plasmids […]5-full were co-transfected with Baculo-GoldTM DNA (Pharmingen) as described previously (Bennett, […]. and Clausen, H. cDNA cloning and expression of a novel human UDP-N-acetyl-alpha-D-galactosamine. Polypeptide N-acetyl-galactosaminyl-transferase, GalNAc-T3. J. Biol. Chem. 271:17006-17012, 1996). Recombinant Baculo-virus were obtained after two successive amplifications in Sf9 cells grown in serum-containing medium, and titers of virus were estimated by titration in 24-well plates with monitoring of enzyme activities. […] J. Biol. […] J. Biol. […] Polypeptide N-acetyl-galactosaminyl-transferase, GalNAc-T3. J. Biol. Chem. 271:17006-17012, 1996). For large scale expression amplified virus was used to infect High FiveTM cells grown in serum-free media (Invitrogen) in upright roller bottles shaking at 140 rpm and 27° C. The kinetic properties were determined with partially purified, secreted forms of the enzymes. Semipurification of enzymes from serum-free medium of infected High-FiveTM cells was performed by sequential Amberlite, DEAE-Sephacel and 5-Sepharose chromatography as described previously ([…]., et al. […] J. Biol. Chem. 272:23503-23514, 1997). Comparisons of enzymes were performed relatively to the activity obtained with βGlcNAc-Bz1 (Tables II and III). Full length enzymes were assayed with 1% Triton CF54 homogenates of washed cells. […] Reaction products were quantified by Dowex-1 chromatography. […] P. and Clausen, H. […] J. Biol. Chem. 273:29295-29305, 1998). The transfer of Gal was evaluated after acid precipitation by filtration through Whatman GF/C glass fibre filters. […] Assays with glycolipid acceptors were conducted as previously described (Holmes, E. H. […] Arch Biochem Biophys 270:630-646, 1989) in reaction mixtures containing 2.5 μmol HEPES buffer, pH 7.2, μmol MnCl2, 100 μg taurodeoxycholate or Triton CF-54, 20 μg acceptor glycolipid, 15 nmol UDP-[^14C]-galactose (13,000 cpm/nmol) and enzyme in a total volume of 100 μl. Conditions for incubation and product isolation were as previously described (Id.).

β3Gal-T1 = biological target: T2, β3Gal-T1 (Homo sapiens, UniProt Q9Y5Z6); assay: Galactosyltransferase assay, recombinant β3Gal-T1, saccharide acceptors
T2 construct: The kinetic properties were determined with partially purified, secreted forms of the enzymes; made in house; host or cells: baculovirus; Sf9 / High Five insect cells, medium
T2 sequence (Q9Y5Z6 27-326 limits assumed): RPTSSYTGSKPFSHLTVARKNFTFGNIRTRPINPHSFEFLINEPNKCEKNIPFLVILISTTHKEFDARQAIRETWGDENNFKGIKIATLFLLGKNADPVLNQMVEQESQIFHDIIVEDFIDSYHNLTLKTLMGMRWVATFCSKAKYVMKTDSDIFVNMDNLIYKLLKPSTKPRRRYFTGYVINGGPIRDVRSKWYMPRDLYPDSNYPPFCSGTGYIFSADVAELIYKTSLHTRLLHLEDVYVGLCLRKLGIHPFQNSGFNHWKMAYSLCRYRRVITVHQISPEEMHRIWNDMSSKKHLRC

β3Gal-T2 = biological target: T3, β3Gal-T2 (Homo sapiens, UniProt O43825); assay: Galactosyltransferase assay, recombinant β3Gal-T2, saccharide acceptors
T3 construct: The kinetic properties were determined with partially purified, secreted forms of the enzymes; made in house; host or cells: baculovirus; Sf9 / High Five insect cells, medium
T3 sequence (O43825 46-422 limits assumed): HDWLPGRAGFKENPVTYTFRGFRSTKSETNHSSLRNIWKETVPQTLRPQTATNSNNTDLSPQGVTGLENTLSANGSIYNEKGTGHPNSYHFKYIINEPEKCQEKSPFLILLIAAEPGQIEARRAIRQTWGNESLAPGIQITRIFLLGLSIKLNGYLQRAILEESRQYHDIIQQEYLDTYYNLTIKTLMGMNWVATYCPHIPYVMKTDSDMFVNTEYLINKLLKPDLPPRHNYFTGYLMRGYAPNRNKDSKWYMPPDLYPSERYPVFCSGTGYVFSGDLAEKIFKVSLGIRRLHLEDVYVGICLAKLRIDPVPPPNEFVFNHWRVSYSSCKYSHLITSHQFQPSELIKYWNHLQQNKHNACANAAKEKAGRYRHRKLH

Row | β3Gal-T5 activity, acceptor 0.2 mM (β3Gal-T5) [nmol/min] | β3Gal-T5 ratio to value with βGlcNAc-Bzl, acceptor 0.2 mM (β3Gal-T5) | β3Gal-T5 activity, acceptor 2 mM (β3Gal-T5) [nmol/min] | β3Gal-T5 ratio to value with βGlcNAc-Bzl, acceptor 2 mM (β3Gal-T5) | Vmax (β3Gal-T5; Table V) [pmol/min] | Km (β3Gal-T5; Table V, read-out: Km) [µM] | β3Gal-T5 activity, substrate concentration 1 mM (β3Gal-T5) [nmol/min/mL] | β3Gal-T5 activity, substrate concentration 5 mM (β3Gal-T5) [nmol/min/mL] | β3Gal-T1 activity, acceptor 0.2 mM (β3Gal-T1) [nmol/min] | β3Gal-T1 ratio to value with βGlcNAc-Bzl, acceptor 0.2 mM (β3Gal-T1) | β3Gal-T1 activity, acceptor 2 mM (β3Gal-T1) [nmol/min] | β3Gal-T1 ratio to value with βGlcNAc-Bzl, acceptor 2 mM (β3Gal-T1) | β3Gal-T2 activity, acceptor 0.2 mM (β3Gal-T2) [nmol/min] | β3Gal-T2 ratio to value with βGlcNAc-Bzl, acceptor 0.2 mM (β3Gal-T2) | β3Gal-T2 activity, acceptor 2 mM (β3Gal-T2) [nmol/min] | β3Gal-T2 ratio to value with βGlcNAc-Bzl, acceptor 2 mM (β3Gal-T2) | SMILES | further results
1 | 0.3 | (0.3) | 0.2 | (2.0) | 931.1 | 2800 | 10.8 | 34.4 | 0.0 | (0.0) | 0.0 | (0.0) | 0.0 | (0.0) | 0.0 | (0.0) | CC(=O)NC1C(OC2C(O)C(CO)OC(Oc3ccc([N+](=O)[O-])cc3)C2NC(C)=O)OC(CO)C(O)C1O [β-D-GlcNAc-(1–3)-α-D-GalNAc-p-Nph] | Km (β3Gal-T5; acceptor substrate, read-out: apparent Km of β3Gal-T5): 2800 µM
2 | – | – | – | – | 873.4 | 20400 | 1.5 | 3.9 | – | – | – | – | – | – | – | – | CC(=O)N[C@H]1[C@H](OCc2ccccc2)O[C@H](CO)[C@@H](O)[C@@H]1O [β-D-GlcNAc-Bzl] | β3Gal-T5 activity with β-D-GlcNAc-Bzl (Table III) (β3Gal-T5; β-D-GlcNAc-Bzl at 20 mM): 0.1 nmol/min; β3Gal-T5 activity with βGlcNAc-Bzl (β3Gal-T5; β-D-GlcNAc-Bzl at 20 mM): 0.1 nmol/min; β3Gal-T1 activity with β-D-GlcNAc-Bzl (Table III) (β3Gal-T1; β-D-GlcNAc-Bzl at 80 mM): 0.03 nmol/min; β3Gal-T1 activity with βGlcNAc-Bzl (β3Gal-T1; β-D-GlcNAc-Bzl at 80 mM): 0.03 nmol/min; β3Gal-T2 activity with β-D-GlcNAc-Bzl (Table III) (β3Gal-T2; β-D-GlcNAc-Bzl at 80 mM): 0.04 nmol/min; β3Gal-T2 activity with βGlcNAc-Bzl (β3Gal-T2; β-D-GlcNAc-Bzl at 80 mM): 0.04 nmol/min
3 | 0.0 | (0.0) | 0.01 | (0.1) | – | – | – | – | 0.0 | (0.0) | 0.0 | (0.0) | 0.0 | (0.0) | 0.0 | (0.0) | CC(=O)N[C@H]1[C@H](OC[C@H]2O[C@H](Oc3ccc([N+](=O)[O-])cc3)[C@H](NC(C)=O)[C@@H](O[C@@H]3O[C@H](CO)[C@H](O)[C@H](O)[C@H]3O)[C@H]2O)O[C@H](CO)[C@@H](O)[C@@H]1O [βGlcNAc(1,6)[βGal(1,3)]αGalNAc-p-Nph] | –
